Source: US10045940B2, “Composition comprising an antibiotic and a corticosteroid” (Intervet Inc., priority 2008, dated 2018)

Assay: Storage stability of the formulation of Table 1 (prior formulation without fatty acid)
Type: physicochemical
Settings: in the formulation of Table 1
Experimental: Applicants have observed an increase in at least one mometasone degradation product over time when the above formulation is stored at room temperature. […] The formation of the degradation product generally can be minimized by storing the formulation at colder temperatures (e.g., 5° C.). There is, however, a need for a formulation that can remain stable at greater temperatures (e.g., room temperature). This invention provides such a formulation.

## C[C@@H]1CN(c2c(F)c(F)c3c(=O)c(C(=O)O)cn(C4CC4)c3c2F)C[C@H](C)N1 [orbifloxacin]
  Effect of the orbifloxacin in the formulation on formation of the mometasone degradation product: accelerates the formation of the degradation product
